Test results as given in ChEMBL document CHEMBL1154822, “Synthesis and antiproliferative activity of 7-azaindirubin-3'-oxime, a 7-aza isostere of the natural indirubin pharmacophore” (J Nat Prod, 2009).

Tests used:
Type in all cases: functional
HOP-62 [1] = assay: Cytotoxicity against human HOP62 cells after 1 to 11 days by MTT assay
SF-268 = assay: Cytotoxicity against human SF268 cells after 1 to 11 days by MTT assay
NCI-H322M [2] = assay: Cytotoxicity against human NCI-H322M cells assessed as cell growth at 1 uM after 1 to 11 days by MTT assay; settings: read-out: Activity
MDA-MB-468 [3] = assay: Cytotoxicity against human MDA-MB-468 cells assessed as cell growth at 1 uM after 1 to 11 days by MTT assay; settings: read-out: Activity
MDA-MB-468 [4] = assay: Cytotoxicity against human MDA-MB-468 cells after 1 to 11 days by MTT assay
HCT-15 = assay: Cytotoxicity against human HCT15 cells after 1 to 11 days by MTT assay
HOP-62 [5] = assay: Cytotoxicity against human HOP62 cells assessed as cell growth at 1 mM after 1 to 11 days by MTT assay; settings: read-out: Activity
NCI-H23 [6] = assay: Cytotoxicity against human NCI-H23 cells assessed as cell growth at 0.1 uM after 1 to 11 days by MTT assay; settings: read-out: Activity
SF-539 = assay: Cytotoxicity against human SF539 cells assessed as cell growth at 10 uM after 1 to 11 days by MTT assay; settings: read-out: Activity
OVCAR-8 [7] = assay: Cytotoxicity against human OVCAR8 cells assessed as cell growth at 1 mM after 1 to 11 days by MTT assay; settings: read-out: Activity
HT-29 [8] = assay: Cytotoxicity against human HT-29 cells assessed as cell growth at 100 uM after 1 to 11 days by MTT assay; settings: read-out: Activity
OVCAR-5 [9] = assay: Cytotoxicity against human OVCAR5 cells assessed as cell growth at 100 uM after 1 to 11 days by MTT assay; settings: read-out: Activity
OVCAR-5 [10] = assay: Cytotoxicity against human OVCAR5 cells assessed as cell growth at 10 uM after 1 to 11 days by MTT assay; settings: read-out: Activity
OVCAR-4 [11] = assay: Cytotoxicity against human OVCAR4 cells assessed as cell growth at 0.1 uM after 1 to 11 days by MTT assay; settings: read-out: Activity
U-251 = assay: Cytotoxicity against human U251 cells after 1 to 11 days by MTT assay
NCI-H460 = assay: Cytotoxicity against human NCI-H460 cells assessed as cell growth at 0.1 uM after 1 to 11 days by MTT assay; settings: read-out: Activity
KM12 = assay: Cytotoxicity against human KM12 cells assessed as cell growth at 100 uM after 1 to 11 days by MTT assay; settings: read-out: Activity
HL-60(TB) [12] = assay: Cytotoxicity against human HL-60(TB) cells assessed as cell growth at 1 uM after 1 to 11 days by MTT assay; settings: read-out: Activity
OVCAR-3 = assay: Cytotoxicity against human OVCAR-3 cells after 1 to 11 days by MTT assay
HT-29 [13] = assay: Cytotoxicity against human HT-29 cells assessed as cell growth at 1 uM after 1 to 11 days by MTT assay; settings: read-out: Activity
OVCAR-4 [14] = assay: Cytotoxicity against human OVCAR4 cells assessed as cell growth at 1 uM after 1 to 11 days by MTT assay; settings: read-out: Activity
MDA-MB-231 = assay: Cytotoxicity against human MDA-MB-231 cells assessed as cell growth at 10 uM after 1 to 11 days by MTT assay; settings: read-out: Activity
OVCAR-5 [15] = assay: Cytotoxicity against human OVCAR5 cells assessed as cell growth at 1 uM after 1 to 11 days by MTT assay; settings: read-out: Activity
NCI-H322M [16] = assay: Cytotoxicity against human NCI-H322M cells assessed as cell growth at 1 mM after 1 to 11 days by MTT assay; settings: read-out: Activity
SW-620 [17] = assay: Cytotoxicity against human SW620 cells assessed as cell growth at 100 uM after 1 to 11 days by MTT assay; settings: read-out: Activity
OVCAR-5 [18] = assay: Cytotoxicity against human OVCAR5 cells after 1 to 11 days by MTT assay
SW-620 [19] = assay: Cytotoxicity against human SW620 cells assessed as cell growth at 10 uM after 1 to 11 days by MTT assay; settings: read-out: Activity
HL-60(TB) [20] = assay: Cytotoxicity against human HL-60(TB) cells after 1 to 11 days by MTT assay
LOX IMVI [21] = assay: Cytotoxicity against human LOXIMVI cells assessed as cell growth at 1 mM after 1 to 11 days by MTT assay; settings: read-out: Activity
TK-10 = assay: Cytotoxicity against human TK10 cells assessed as cell growth at 0.1 uM after 1 to 11 days by MTT assay; settings: read-out: Activity
LOX IMVI [22] = assay: Cytotoxicity against human LOXIMVI cells assessed as cell growth at 10 uM after 1 to 11 days by MTT assay; settings: read-out: Activity
HOP-62 [23] = assay: Cytotoxicity against human HOP62 cells assessed as cell growth at 1 uM after 1 to 11 days by MTT assay; settings: read-out: Activity
NCI-H23 [24] = assay: Cytotoxicity against human NCI-H23 cells assessed as cell growth at 100 uM after 1 to 11 days by MTT assay; settings: read-out: Activity
SK-MEL-5 = assay: Cytotoxicity against human SK-MEL-5 cells assessed as cell growth at 10 uM after 1 to 11 days by MTT assay; settings: read-out: Activity
NCI/ADR-RES = assay: Cytotoxicity against human NCI/ADR-RES cells assessed as cell growth at 0.1 uM after 1 to 11 days by MTT assay; settings: read-out: Activity
HT-29 [25] = assay: Cytotoxicity against human HT-29 cells after 1 to 11 days by MTT assay
OVCAR-8 [26] = assay: Cytotoxicity against human OVCAR8 cells assessed as cell growth at 100 uM after 1 to 11 days by MTT assay; settings: read-out: Activity
DU-145 = assay: Cytotoxicity against human DU145 cells after 1 to 11 days by MTT assay
SNB-75 = assay: Cytotoxicity against human SNB75 cells assessed as cell growth at 1 mM after 1 to 11 days by MTT assay; settings: read-out: Activity
RPMI-8226 = assay: Cytotoxicity against human RPMI8226 cells after 1 to 11 days by MTT assay
HOP-62 [27] = assay: Cytotoxicity against human HOP62 cells assessed as cell growth at 10 uM after 1 to 11 days by MTT assay; settings: read-out: Activity
SN12C = assay: Cytotoxicity against human SN12C cells assessed as cell growth at 1 mM after 1 to 11 days by MTT assay; settings: read-out: Activity
MOLT-4 = assay: Cytotoxicity against human MOLT4 cells assessed as cell growth at 1 uM after 1 to 11 days by MTT assay; settings: read-out: Activity
[28] = read-out: LC50 (the source's name)

Compound `O=C1Nc2ncccc2/C1=C1/Nc2ccccc2/C1=N\O` has a GI50 (HOP-62 [1]) greater than 100 µM, a TGI (HOP-62 [1]) greater than 100 µM and a CC50 (HOP-62 [1]; [28]) greater than 100 µM. The GI50 (SF-268) was greater than 100 µM, the TGI (SF-268) was greater than 100 µM and the CC50 (SF-268; [28]) was greater than 100 µM. For the same compound, the growth at 1 µM (NCI-H322M [2]) was 82%, the growth at 1 µM (MDA-MB-468 [3]) was 75% and the GI50 (MDA-MB-468 [4]) was 3.01 µM. It also gave a TGI (MDA-MB-468 [4]) greater than 100 µM, a CC50 (MDA-MB-468 [4]; [28]) greater than 100 µM and a GI50 (HCT-15) of 3.67 µM. It also gave a TGI (HCT-15) greater than 100 µM, a CC50 (HCT-15; [28]) greater than 100 µM and a growth at 1000 µM (HOP-62 [5]) of 74%. For the same compound, the growth at 0.1 µM (NCI-H23 [6]) was 96%, the growth at 10 µM (SF-539) was 87% and the growth at 1000 µM (OVCAR-8 [7]) was 52%. The growth at 100 µM (HT-29 [8]) was 81%, the growth at 100 µM (OVCAR-5 [9]) was 88% and the growth at 10 µM (OVCAR-5 [10]) was 94%. The growth at 0.1 µM (OVCAR-4 [11]) was 94%, the GI50 (U-251) was greater than 100 µM and the TGI (U-251) was greater than 100 µM. For the same compound, the CC50 (U-251; [28]) was greater than 100 µM, the growth at 0.1 µM (NCI-H460) was 110% and the growth at 100 µM (KM12) was 6%. The growth at 1 µM (HL-60(TB) [12]) was 99%, the GI50 (OVCAR-3) was greater than 100 µM and the TGI (OVCAR-3) was greater than 100 µM. It also gave a CC50 (OVCAR-3; [28]) greater than 100 µM, a growth at 1 µM (HT-29 [13]) of 98% and a growth at 1 µM (OVCAR-4 [14]) of 97%. The growth at 10 µM (MDA-MB-231) was 76%, the growth at 1 µM (OVCAR-5 [15]) was 89% and the growth at 1000 µM (NCI-H322M [16]) was 12%. The growth at 100 µM (SW-620 [17]) was 43%, the GI50 (OVCAR-5 [18]) was 93.9 µM and the TGI (OVCAR-5 [18]) was greater than 100 µM. It also gave a CC50 (OVCAR-5 [18]; [28]) greater than 100 µM, a growth at 10 µM (SW-620 [19]) of 98% and a GI50 (HL-60(TB) [20]) of 5.23 µM. For the same compound, the TGI (HL-60(TB) [20]) was greater than 100 µM, the CC50 (HL-60(TB) [20]; [28]) was greater than 100 µM and the growth at 1000 µM (LOX IMVI [21]) was 30%. For the same compound, the growth at 0.1 µM (TK-10) was 101%, the growth at 10 µM (LOX IMVI [22]) was 86% and the growth at 1 µM (HOP-62 [23]) was 100%. For the same compound, the growth at 100 µM (NCI-H23 [24]) was 55%, the growth at 10 µM (SK-MEL-5) was 94% and the growth at 0.1 µM (NCI/ADR-RES) was 99%. For the same compound, the GI50 (HT-29 [25]) was 88.8 µM, the TGI (HT-29 [25]) was greater than 100 µM and the CC50 (HT-29 [25]; [28]) was greater than 100 µM. For the same compound, the growth at 100 µM (OVCAR-8 [26]) was 50%, the GI50 (DU-145) was 5.69 µM and the TGI (DU-145) was greater than 100 µM. For the same compound, the CC50 (DU-145; [28]) was greater than 100 µM, the growth at 1000 µM (SNB-75) was 19% and the GI50 (RPMI-8226) was 1.89 µM. For the same compound, the TGI (RPMI-8226) was 62.5 µM, the CC50 (RPMI-8226; [28]) was greater than 100 µM and the growth at 10 µM (HOP-62 [27]) was 105%. It also gave a growth at 1000 µM (SN12C) of 36% and a growth at 1 µM (MOLT-4) of 77%.
